Data taken from PubChem BioAssay AID179 (DTP/NCI, 2004).
Calls of active or inactive are those of the source.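 How the source made its calls: active means compounds giving half or more protection of infected cells from virus-caused growth loss, again on retest; inactive means the rest.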

Tested on: CEM cells HIV-1 protection, formazan growth assay
Test: NCI AIDS Antiviral Assay
Conditions: for IC50: measured here: growth of uninfected CEM cells
Summary of the method: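 CEM (human) cells, HIV-1 infected vs uninfected, 5-point dosing, formazan growth read-out. Retest threshold 50% protection.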

## c1ccc(N/N=C2\CC(c3ccccc3)Oc3ccccc32)cc1 (stereo unspecified)
  EC50: > 200 µM
  IC50: 22.4 µM

## COC(=O)N1CC2CCCC(C2)c2ccccc21 (stereo unspecified)
  EC50: > 204 µM
  IC50: 186 µM

## CC12CCC(C(=O)O1)C(C)(C)O2 (stereo unspecified)
  EC50: > 200 µM
  IC50: > 200 µM

## CCc1ccc(C2=C(O)C(=O)C(c3ccccc3)=C(O)C2=O)cc1
  EC50: > 87.1 µM
  IC50: 44.7 µM

## c1ccc(SCCCC(Sc2ccccc2)Sc2ccccc2)cc1
  outcome: inactive

## COc1cc2cc(C(=O)N3CC(CCl)c4c3cc(NC(=O)C(C)Nc3c([N+](=O)[O-])cc(C(=O)NCCN(C)C)cc3[N+](=O)[O-])c3ccccc43)[nH]c2c(OC)c1OC (stereo unspecified)
  EC50: > 0.1 µM
  IC50: 0.0575 µM

## Cc1cc2c(c(C(N)=O)c1C)-c1cc(Cl)cc(Cl)c1C2=O
  EC50: > 22.4 µM
  IC50: > 22.4 µM

## OC1CCC2OOC1O2 (stereo unspecified)
  outcome: inactive

## O=C(O)C12C3CCC(O3)C1(C(=O)O)C1CCC2O1 (stereo unspecified)
  EC50: > 200 µM
  IC50: > 200 µM

## CNc1ncc(-c2nnnn2-c2ccccc2)c(CN(C)C)n1
  EC50: > 200 µM
  IC50: > 200 µM

## Cc1nn(-c2ccc(S(=O)(=O)[O-])cc2)c([O-])c1N=[N+](C)c1ccc(-c2ccc(N=Nc3ccc4c(S(=O)(=O)[O-])cc(S(=O)(=O)[O-])c(N)c4c3[O-])c([O-])c2)cc1[O-].[Cu+2].[Cu+2].[Na+]
  EC50: 6.76 µM
  IC50: 120 µM

## O=C(Nc1ccc(Cl)cc1Cl)c1cc2nc3ccccc3c(=O)n2c2ccccc12
  EC50: > 100 µM
  IC50: > 100 µM

## O=C1OCc2c1cc1ccc(O)c(OC3OC(CO)C(O)C(O)C3O)c1c2-c1ccc2c(c1)OCO2 (stereo unspecified)
  EC50: > 501 µM
  IC50: > 501 µM

## CCOC(=O)Nc1nn(C)c(=NCc2ccccc2)s1
  EC50: > 200 µM
  IC50: > 200 µM

## O=C(O)Cc1cccc2c(=O)c3ccccc3oc12
  EC50: > 200 µM
  IC50: > 200 µM

## Cc1ccc(SC23C=CC(CC24CCOC4=O)OC3=O)cc1 (stereo unspecified)
  EC50: > 200 µM
  IC50: > 200 µM

## O=[N+]([O-])/C(C(Cl)=C(Cl)Cl)=C(/Br)SCc1ccccc1
  EC50: > 20 µM
  IC50: 0.575 µM

## c1ccc(C2=Nc3ccccc3C(c3ccccc3)=Nc3ccccc32)cc1
  EC50: > 72.4 µM
  IC50: > 72.4 µM

## CC1(C)CC[C@H](C2=CC(=O)c3c(O)ccc(O)c3C2=O)O1
  EC50: > 91.2 µM
  IC50: 0.0955 µM

## CC1=CN2C(c3ccccc3)=NON(c3ccc(C)cn3)C2C=C1 (stereo unspecified)
  EC50: > 21.4 µM
  IC50: > 21.4 µM

## CN(C)c1cc(CNCCS)nc(CNCCS)c1
  EC50: > 200 µM
  IC50: 3.47 µM

## Cc1occc1C(=S)Nc1ccc(Cl)c(C(=O)OC2CCCCC2)c1
  EC50: 0.012 µM
  IC50: 7.24 µM

## [N-]=[N+]=NCCCCCCCCCCCC(=O)O
  EC50: > 200 µM
  IC50: 81.3 µM

## O=C(CCCC[n+]1ccccc1)Sc1ccccc1C(=O)Nc1ccc(S(=O)(=O)Nc2nccs2)cc1
  EC50: 13.5 µM
  IC50: 91.2 µM

## O=C1COc2ccc(F)cc2N1
  EC50: > 380 µM
  IC50: > 380 µM

## c1csc(-c2nc3sc(-c4cccs4)nc3s2)c1
  outcome: inactive

## O=C(O)C1CCC(c2ccc(F)cc2)=N1 (stereo unspecified)
  EC50: > 200 µM
  IC50: > 200 µM

## CCC1Sc2cc(OC)cc(N)c2NC1=O (stereo unspecified)
  EC50: > 200 µM
  IC50: > 200 µM

## CN(c1ccccc1)c1cc2ccccc2nn1
  EC50: > 200 µM
  IC50: 93.3 µM

## FC1=C2C3CCC(C3)C2C1(F)F (stereo unspecified)
  EC50: > 200 µM
  IC50: > 200 µM

## O=[N+]([O-])C(/C=C(\Cl)[N+](=O)[O-])=C(Nc1ccccc1)Nc1ccccc1
  EC50: > 200 µM
  IC50: 6.61 µM

## CN(C)C(=Nc1nc(=[N+](C)C)ss1)N(C)C
  outcome: inactive

## CC(O)=NC(Cc1ccc2ccccc2c1)C(O)=NC(Cc1ccc(Cl)cc1)C(O)=NC(Cc1c[nH]c2ccccc12)C(O)=NC(CO)C(O)=NC(Cc1ccc(O)cc1)C(O)=NC(CCCN=C(N)N)C(O)=NC(CC(C)C)C(O)=NC(CCCN=C(N)N)C(=O)N1CCCC1C(O)=NC(C)C(=N)O (stereo unspecified)
  EC50: > 87.1 µM
  IC50: > 87.1 µM

## Cc1cccc(NC(=O)C(=O)C(C(=O)c2ccc3ccccc3c2)C2OC(=O)c3ccccc32)c1C (stereo unspecified)
  EC50: > 28.2 µM
  IC50: 26.3 µM

## O=Nc1c(O)c2ccccc2[nH]c1=O
  EC50: > 200 µM
  IC50: 45.7 µM

## O=C1NCCCc2nonc21
  EC50: > 200 µM
  IC50: > 200 µM

## CSCCCNC(=O)c1csc(-c2csc(CCNC(=O)CNC(=O)CNC(=O)CNC(=O)OC(C)(C)C)n2)n1
  EC50: > 407 µM
  IC50: > 407 µM

## C=C(CCCCCCCCC)CC(=O)SCCNC(=O)CCNC(=O)C(O)C(C)(C)COP(=O)(O)OP(=O)(O)OCC1OC(n2cnc3c(N)ncnc32)C(O)C1OP(=O)(O)O (stereo unspecified)
  EC50: > 200 µM
  IC50: 72.4 µM

## CCOC(=O)CNC1C(NC(C)=O)C(OC)OC2COC(c3ccccc3)OC21 (stereo unspecified)
  outcome: inactive

## O=C(c1ccccc1)[C@H]1Nc2ccc(Cl)cc2[C@H]2c3ccccc3O[C@H]21
  EC50: > 27.5 µM
  IC50: > 27.5 µM

## CC(C)(C)NC(=O)NC12CC3CC(CC(F)(C3)C1)C2
  EC50: > 26.9 µM
  IC50: > 26.9 µM

## COc1ccccc1/C=C1\NC(=S)N(/C=C2\C(=O)Oc3ccccc3C2=O)C1=O
  EC50: > 200 µM
  IC50: 81.3 µM

## COC(=O)c1ccc2c(c1)CC1(C2)Cc2cc3c(cc2C1=O)CCC3 (stereo unspecified)
  EC50: > 200 µM
  IC50: 20 µM
